Earlier results in patent publication US20080306035A1, “Methods and Compositions for Treating Female Infertility Using Clomiphene” (priority 2005, published 2008).
Structures can show the parent of a compound that is named as a salt.

Experiments:
[1] = in vivo

Row | Compound | patients treated who achieve pregnancy (patients treated with clomiphene citrate, London et al. 1999) | ovulation, share of patients (up to 100 mg clomiphene citrate for 5 days per cycle) | effect on uterine blood flow [1]
1 | CCN(CC)CCOc1ccc(C(=C(Cl)c2ccccc2)c2ccccc2)cc1 [clomiphene citrate] | 25-40% | about 70% | 
2 | cis-clomiphene |  |  | raise uterine blood flow
3 | trans-clomiphene |  |  | raise uterine blood flow
